The values that follow come from PMC4149570 (PLoS ONE, 2014).

Data set [1] concerns the target T1, Y. pestis MEP synthase (Yersinia pestis, UniProt Q8ZH62). Briefly: biochemical. The following applies: for inhibition at 100 µM: read-out: inhibition of enzymatic activity (rational library screen).
Data set [2] addresses T1, Y. pestis MEP synthase. The following applies: for IC50: read-out: IC50 (dose-response, Figure 9).
The test system of another data set is MEP synthase. The following applies: cited from earlier work.
Data set [3] concerns the target Synechocytis sp PCC6803 MEP synthase. The following applies: cited from earlier work.
Data set [4] relates to F. tularensis MEP synthase. The following applies: cited from earlier work.
The test system of another data set is Y. pestis subsp. A1122. The data set is described as follows: microbe, parasite or virus in culture. The following applies: for IC50: read-out: IC50 of Y. pestis growth (fractional growth, OD600). Format: cell-based, Yersinia pestis.
The next data set relates to E.coli MEP synthase. The following applies: cited from earlier work.
Another data set deals with F. tularensis. The following applies: read-out: activity of fosmidomycin with F. tularensis (half maximal growth inhibition); cited from earlier work.
The mark [5] stands for this setting: Yersinia pestis, SUBSP.A1122, 24 h.
[6] abbreviates: IC50 (enzyme preincubated with inhibitor, Figure 10).

Values joined by “and” are separate entries in the source; they are usually repeats but may differ in a detail not shown here. Equal entries are not always repeated. “Also recorded” adds a separate entry of the source. Where two headings read alike, the source gives them in different places.

T1 sequence (Q8ZH62 whole entry, looked up): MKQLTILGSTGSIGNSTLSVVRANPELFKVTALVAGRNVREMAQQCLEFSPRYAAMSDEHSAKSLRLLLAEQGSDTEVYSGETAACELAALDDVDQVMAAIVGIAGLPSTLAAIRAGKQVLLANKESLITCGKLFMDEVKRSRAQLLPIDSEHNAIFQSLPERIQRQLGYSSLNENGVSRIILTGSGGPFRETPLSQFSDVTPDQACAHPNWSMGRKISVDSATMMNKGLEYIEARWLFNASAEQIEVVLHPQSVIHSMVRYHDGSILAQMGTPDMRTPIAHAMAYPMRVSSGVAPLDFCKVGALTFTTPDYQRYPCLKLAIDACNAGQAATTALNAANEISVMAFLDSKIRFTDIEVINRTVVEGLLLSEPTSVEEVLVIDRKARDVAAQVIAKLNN

`CC(=O)N(O)CCCP(=O)(O)O` [FR900098, reference compound]: the inhibition constant (Ki) on Y. pestis MEP synthase [1] is 170 ± 7.1 nM; in data set [3] (read-out: Ki FR900098), 2 nM. The IC50 was 231 nM against Y. pestis MEP synthase [1] (IC50 FR900098); 230 nM in data set [4] (read-out: IC50 FR900098); 29 µM and 6.4 µg/mL in the data set with Y. pestis subsp. A1122 (setting [5]); 29300 nM with Y. pestis subsp. A1122; 35 nM with E.coli MEP synthase (read-out: IC50 FR900098). For the same molecule, on Y. pestis MEP synthase [2], the “mode of inhibition with respect to DXP” value is reported as “competitive”. Moreover, the “mode of inhibition with respect to NADPH” value on Y. pestis MEP synthase [2] was “uncompetitive”. The “mode of inhibition relative to DXP” value with MEP synthase is on record as “competitive”. Further, the “mode of inhibition with respect to the binding of NADPH” value in the data set with MEP synthase is “uncompetitive”.

On to `CC(=O)N(CCCP(=O)(O)O)OCc1ccc(-c2ccccc2)cc1` [compound 13], for which the inhibition at 100 µM on Y. pestis MEP synthase [1] was > 75%. The IC50 on Y. pestis MEP synthase [2] was 5110 nM.

For `O=CN(O)CCCP(=O)(O)O` [fosmidomycin], the Ki on Y. pestis MEP synthase [1] is 968 nM; in data set [3] (read-out: Ki fos), 4 nM; in data set [4] (read-out: Ki fos) it was 98.9 ± 4.5 nM; in the data set with E.coli MEP synthase (read-out: Ki fos), 21 to 215 nM. In addition, the IC50 against Y. pestis MEP synthase [1] (IC50 fos) was 710 nM; in the data set on F. tularensis it was 12100 nM; in data set [4] (read-out: IC50 fos), 247 nM; with E.coli MEP synthase (read-out: IC50 fos), 35 nM. In addition, the “mode of inhibition with respect to the binding of NADPH” value in the data set on MEP synthase was “uncompetitive”.

As to `CC(C)=CCOP(=O)(O)OP(=O)(O)O` [DMAPP, dimethylallyl pyrophosphate], at Y. pestis MEP synthase [2], the “inhibition of Y. pestis MEP synthase (feedback inhibition test)” value (shortened to “inhibition of Y. pestis MEP synthase”) is reported as “No enzyme inhibition was observed”.

For `CC(=O)N(CCCP(=O)(OCOC(=O)C(C)(C)C)OCOC(=O)C(C)(C)C)OCc1ccc(C(C)C)cc1` [compound 52], the “growth inhibitory activity towards Y. pestis liquid culture” value in the data set with Y. pestis subsp. A1122 is “comparable to FR900098; also recorded: relatively poor inhibitory activity”.

In the case of `C=C(C)CCO[P@@](=O)(O)OP(=O)(O)O` [IPP, isopentenyl pyrophosphate], the “inhibition of Y. pestis MEP synthase” value on Y. pestis MEP synthase [2] is “No enzyme inhibition was observed”.

For `C[C@@]1(CO)OP(=O)(O)OP(=O)(O)OC[C@H]1O` [compound 15], the IC50 came out at 4110 nM against Y. pestis MEP synthase [1] (IC50 (dose-response, Figure 9)) and 1190 nM against Y. pestis MEP synthase [1] (setting [6]). For the same molecule, the inhibition at 100 µM on Y. pestis MEP synthase [1] was > 75%. For the same molecule, the “improvement of IC50 on preincubation with inhibitor” value at Y. pestis MEP synthase [2] is recorded as “approximately 3 fold”. Besides, the “growth inhibitory activity towards Y. pestis liquid culture” value with Y. pestis subsp. A1122 was “comparable to FR900098; also recorded: relatively poor inhibitory activity”.

Consider `CCOP(=O)(CCCN(OCc1ccc(C(C)C)cc1)C(C)=O)OCC` [compound 51], for which the “growth inhibitory activity towards Y. pestis liquid culture” value in the data set on Y. pestis subsp. A1122 is on record as “comparable to FR900098; also recorded: relatively poor inhibitory activity”.

With `CC1(C)S[C@@H]2[C@H](NC(=O)[C@H](N)c3ccccc3)C(=O)N2[C@H]1C(=O)O` [ampicillin, reference compound], in the data set on Y. pestis subsp. A1122 (setting [5]), the IC50 is 10.8 µM and 3.8 µg/mL.

Consider `Cc1ccc(C(=O)N(O)CCCP(=O)(O)O)cc1` [compound 42], for which, on Y. pestis MEP synthase [1], the inhibition at 100 µM was > 75%. For the same molecule, at Y. pestis MEP synthase [2], the IC50 is 10800 nM.

For `C/C(=C\COP(=O)(O)OP(=O)(O)O)CO` [compound 16], the IC50 against Y. pestis MEP synthase [1] (IC50 (dose-response, Figure 9)) amounted to 4150 nM. The molecule also yielded an IC50 at Y. pestis MEP synthase [1] (setting [6]) of 335 nM. Also, at Y. pestis MEP synthase [1], the inhibition at 100 µM was > 75%. Further, at Y. pestis MEP synthase [2], the “improvement of IC50 on preincubation with inhibitor” value is ~12 fold, the “mode of inhibition with respect to DXP” value was “competitive” and the “mode of inhibition with respect to NADPH” value is listed as “competitive”. In addition, the “growth inhibitory activity towards Y. pestis liquid culture” value in the data set on Y. pestis subsp. A1122 was “comparable to FR900098; also recorded: relatively poor inhibitory activity”.

Take `O=C(c1ccc2ccccc2c1)N(O)CCCP(=O)(O)O` [compound 48]: the inhibition at 100 µM at Y. pestis MEP synthase [1] is > 75%. Moreover, on Y. pestis MEP synthase [2], the IC50 amounted to 9530 nM.

On to `CC(C)=CCC/C(C)=C/COP(=O)(O)OP(=O)(O)O` [GPP, geranyl pyrophosphate], for which the “inhibition of Y. pestis MEP synthase” value on Y. pestis MEP synthase [2] is “No enzyme inhibition was observed”.
